How the values were obtained:
Carboplatin = compound: C1CC(C1)(C(=O)[O-])C(=O)[O-].N.N.[Pt+2] [Carboplatin]; settings: max 10 µM
Method in brief: (§1)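 After 24 hours at 37°C and 5% CO2 in 1536-well plates holding 7.5 μl of DMEM/F12 or RPMI with 10% FBS, cancer cell lines were dosed for 72 hours, with final DMSO typically 0.2%. Viability came from CellTiter-Glo 2.0 luminescence, scaled between the means of blank wells and DMSO wells. A non-linear mixed effects model fitted a two-parameter logistic curve to each dose response to give the single-agent IC50.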

AZD5363 = compound: C1CN(CCC1(C(=O)N[C@@H](CCO)C2=CC=C(C=C2)Cl)N)C3=NC=NC4=C3C=CN4 [AZD5363]; settings: max 10 µM
Method in brief: as §1

AZD1775 = compound: C=CCn1c(=O)c2cnc(Nc3ccc(N4CCN(C)CC4)cc3)nc2n1-c1cccc(C(C)(C)O)n1 [AZD1775]; settings: max 3 µM
Method in brief: as §1

Trametinib = compound: CC(=O)Nc1cccc(-n2c(=O)n(C3CC3)c(=O)c3c(Nc4ccc(I)cc4F)n(C)c(=O)c(C)c32)c1 [Trametinib]; settings: max 1 µM
Method in brief: as §1

Paclitaxel = compound: CC(=O)O[C@H]1C(=O)[C@@]2(C)[C@H]([C@H](OC(=O)c3ccccc3)[C@]3(O)C[C@H](OC(=O)[C@H](O)[C@@H](NC(=O)c4ccccc4)c4ccccc4)C(C)=C1C3(C)C)[C@]1(OC(C)=O)CO[C@@H]1C[C@@H]2O [Paclitaxel]; settings: max 3 µM
Method in brief: as §1

Palbociclib = compound: CC(=O)c1c(C)c2cnc(Nc3ccc(N4CCNCC4)cn3)nc2n(C2CCCC2)c1=O [Palbociclib]; settings: max 10 µM
Method in brief: as §1

AZD1390 = compound: CC(C)n1c(=O)n(C)c2cnc3cc(F)c(-c4ccc(OCCCN5CCCCC5)nc4)cc3c21 [AZD1390]; settings: max 0.3 µM
Method in brief: as §1

Venetoclax = compound: CC1(C)CCC(CN2CCN(c3ccc(C(=O)NS(=O)(=O)c4ccc(NCC5CCOCC5)c([N+](=O)[O-])c4)c(Oc4cnc5[nH]ccc5c4)c3)CC2)=C(c2ccc(Cl)cc2)C1 [Venetoclax]; settings: max 1 µM
Method in brief: as §1

Dasatinib = compound: CC1=C(C(=CC=C1)Cl)NC(=O)C2=CN=C(S2)NC3=CC(=NC(=N3)C)N4CCN(CC4)CCO [Dasatinib]; settings: max 2 µM
Method in brief: as §1

SG3199 = compound: CC1=CN2[C@@H](C1)C=NC3=CC(=C(C=C3C2=O)OC)OCCCCCOC4=C(C=C5C(=C4)N=C[C@@H]6CC(=CN6C5=O)C)OC [SG3199]; settings: max 0.001 µM
Method in brief: as §1

AZD2811 = compound: CCN(CCO)CCCOc1ccc2c(Nc3cc(CC(=O)Nc4cccc(F)c4)[nH]n3)ncnc2c1 [AZD2811]; settings: max 1 µM
Method in brief: as §1

SN-38 = compound: CCc1c2c(nc3ccc(O)cc13)-c1cc3c(c(=O)n1C2)COC(=O)[C@]3(O)CC [SN-38]; settings: max 0.3 µM
Method in brief: as §1

AZD0156 = compound: CN(C)CCCOc1ccc(-c2ccc3ncc4c(c3c2)n(C2CCOCC2)c(=O)n4C)cn1 [AZD0156]; settings: max 3 µM
Method in brief: as §1

AZD4320 = compound: CN(CC[C@H](CSC1=CC=CC=C1)NC2=C(C=C(C=C2)S(=O)(=O)NC(=O)C3=CC=C(C=C3)N4CCC(CC4)[C@H](C5=CC=CC=C5C6=CC=C(C=C6)Cl)O)S(=O)(=O)C(F)(F)F)CCO [AZD4320]; settings: max 1 µM
Method in brief: as §1

Alisertib = compound: COc1cc(Nc2ncc3c(n2)-c2ccc(Cl)cc2C(c2c(F)cccc2OC)=NC3)ccc1C(=O)O [Alisertib]; settings: max 10 µM
Method in brief: as §1

Etoposide = compound: COc1cc([C@@H]2c3cc4c(cc3[C@@H](O[C@@H]3O[C@@H]5CO[C@@H](C)O[C@H]5[C@H](O)[C@H]3O)[C@H]3COC(=O)[C@H]23)OCO4)cc(OC)c1O [Etoposide]; settings: max 10 µM
Method in brief: as §1

Gefitinib = compound: COc1cc2ncnc(Nc3ccc(F)c(Cl)c3)c2cc1OCCCN1CCOCC1 [Gefitinib]; settings: max 10 µM
Method in brief: as §1

Prexasertib = compound: COc1cccc(OCCCN)c1-c1cc(Nc2cnc(C#N)cn2)n[nH]1 [Prexasertib]; settings: max 1 µM
Method in brief: as §1

Doxorubicin = compound: COc1cccc2c1C(=O)c1c(O)c3c(c(O)c1C2=O)C[C@@](O)(C(=O)CO)C[C@@H]3O[C@H]1C[C@H](N)[C@H](O)[C@H](C)O1 [Doxorubicin]; settings: max 1 µM
Method in brief: as §1

AZD5153 = compound: COc1nnc2ccc(N3CCC(c4ccc(OCCN5CCN(C)C(=O)[C@H]5C)cc4)CC3)nn12 [AZD5153]; settings: max 1 µM
Method in brief: as §1

Lapatinib = compound: CS(=O)(=O)CCNCc1ccc(-c2ccc3ncnc(Nc4ccc(OCc5cccc(F)c5)c(Cl)c4)c3c2)o1 [Lapatinib]; settings: max 10 µM
Method in brief: as §1

AZD8186 = compound: C[C@@H](Nc1cc(F)cc(F)c1)c1cc(C(=O)N(C)C)cc2c(=O)cc(N3CCOCC3)oc12 [AZD8186]; settings: max 10 µM
Method in brief: as §1

Crizotinib = compound: C[C@@H](Oc1cc(-c2cnn(C3CCNCC3)c2)cnc1N)c1c(Cl)ccc(F)c1Cl [Crizotinib]; settings: max 10 µM
Method in brief: as §1

Savolitinib = compound: C[C@@H](c1ccc2nccn2c1)n1nnc2ncc(-c3cnn(C)c3)nc21 [Savolitinib]; settings: max 1 µM
Method in brief: as §1

AZD6738 = compound: C[C@@H]1COCCN1C2=NC(=NC(=C2)C3(CC3)[S@](=N)(=O)C)C4=C5C=CNC5=NC=C4 [AZD6738]; settings: max 10 µM
Method in brief: as §1

AZD5991 = compound: Cc1c2c(nn1C)CSCc1cc(n(C)n1)CSc1cc(c3ccccc3c1)OCCCc1c(C(=O)O)n(C)c3c-2c(Cl)ccc13 [AZD5991]; settings: max 1 µM
Method in brief: as §1

AZD7648 = compound: Cc1cc2ncnn2cc1Nc1ncc2c(n1)n(C1CCOCC1)c(=O)n2C [AZD7648]; settings: max 10 µM
Method in brief: as §1

Taselisib = compound: Cc1nc(-c2cn3c(n2)-c2ccc(-c4cnn(C(C)(C)C(N)=O)c4)cc2OCC3)n(C(C)C)n1 [Taselisib]; settings: max 10 µM
Method in brief: as §1

Selumetinib = compound: Cn1cnc2c(F)c(Nc3ccc(Br)cc3Cl)c(C(=O)NOCCO)cc21 [Selumetinib]; settings: max 10 µM
Method in brief: as §1

SRA737 = compound: N#Cc1cnc(Nc2cc(NC[C@H]3CNCCO3)c(C(F)(F)F)cn2)cn1 [SRA737]; settings: max 10 µM
Method in brief: as §1

MK-2206 = compound: NC1(c2ccc(-c3nc4ccn5c(=O)[nH]nc5c4cc3-c3ccccc3)cc2)CCC1 [MK-2206]; settings: max 10 µM
Method in brief: as §1

Gemcitabine = compound: Nc1ccn([C@@H]2O[C@H](CO)[C@@H](O)C2(F)F)c(=O)n1 [Gemcitabine]; settings: max 0.3 µM
Method in brief: as §1

[1] = compound: O=C(Nc1ccc2[nH]nc(-c3ccncc3)c2c1)[C@@H]1CCN(CC(=O)N2CCN(c3ccc(-c4ncccn4)cc3)CC2)C1; settings: max 5 µM
Method in brief: as §1

Olaparib = compound: O=C(c1cc(Cc2n[nH]c(=O)c3ccccc23)ccc1F)N1CCN(C(=O)C2CC2)CC1 [Olaparib]; settings: max 10 µM
Method in brief: as §1

5-Fluorouracil = compound: O=c1[nH]cc(F)c(=O)[nH]1 [5-Fluorouracil]; settings: max 20 µM
Method in brief: as §1

CAMA-1 (Breast Carcinoma)
IC50, cell viability 72 h (Carboplatin): > 10 µM | IC50, cell viability 72 h (AZD5363): 4.86 µM | IC50, cell viability 72 h (AZD1775): > 3 µM | IC50, cell viability 72 h (Trametinib): > 1 µM | IC50, cell viability 72 h (Paclitaxel): 0.112 µM | IC50, cell viability 72 h (Palbociclib): > 10 µM | IC50, cell viability 72 h (AZD1390): > 0.3 µM | IC50, cell viability 72 h (Venetoclax): > 1 µM | IC50, cell viability 72 h (Dasatinib): > 2 µM | IC50, cell viability 72 h (SG3199): > 0.001 µM | IC50, cell viability 72 h (AZD2811): > 1 µM | IC50, cell viability 72 h (SN-38): > 0.3 µM | IC50, cell viability 72 h (AZD0156): > 3 µM | IC50, cell viability 72 h (AZD4320): > 1 µM | IC50, cell viability 72 h (Alisertib): > 10 µM | IC50, cell viability 72 h (Etoposide): > 10 µM | IC50, cell viability 72 h (Gefitinib): > 10 µM | IC50, cell viability 72 h (Prexasertib): > 1 µM | IC50, cell viability 72 h (Doxorubicin): > 1 µM | IC50, cell viability 72 h (AZD5153): > 1 µM | IC50, cell viability 72 h (Lapatinib): > 10 µM | IC50, cell viability 72 h (AZD8186): 7.76 µM | IC50, cell viability 72 h (Crizotinib): > 10 µM | IC50, cell viability 72 h (Savolitinib): > 1 µM | IC50, cell viability 72 h (AZD6738): > 10 µM | IC50, cell viability 72 h (AZD5991): > 1 µM | IC50, cell viability 72 h (AZD7648): > 10 µM | IC50, cell viability 72 h (Taselisib): > 10 µM | IC50, cell viability 72 h (Selumetinib): > 10 µM | IC50, cell viability 72 h (SRA737): > 10 µM | IC50, cell viability 72 h (MK-2206): > 10 µM | IC50, cell viability 72 h (Gemcitabine): > 0.3 µM | IC50, cell viability 72 h [1]: > 5 µM | IC50, cell viability 72 h (Olaparib): > 10 µM | IC50, cell viability 72 h (5-Fluorouracil): > 20 µM
